Measured values from patent US11058654B2, “Compositions and methods for the treatment of hemoglobinopathies and thalassemias” (AXCELLA HEALTH INC., priority 2018, dated 2021).
Like-named read-outs stand apart in the source and are kept apart here.

Tests used:
[1] = system: RBCs of healthy whole blood; experiment: RBC deformability (LORRCA elongation index), ex vivo TBHP oxidation of healthy whole blood; type: cell-based, human; conditions: healthy donor 2, single amino acid treatments, in words
Source text: Whole blood from healthy African American and/or Hispanic donors was obtained from Research Blood Components, LLC based on the following donor selection criteria: Adult age (between 18 and 50 years), normal BMI (<30), and absence of other confounding clinical conditions. Whole blood from SCD donors were obtained from BioIVT based on the following donor selection criteria: Patients with genotypes HbSS, HbSC, HbS/β^0 and at least 1-2 months gap since last blood transfusion. Whole blood was shipped on ice on the same day as blood draw. Upon receipt, the blood sample was aliquoted and stored in the refrigerator until used for studies.
RBC deformability measurements were conducted with the Laser Optical Rotational Red Cell Analyzer (LORRCA) from RR Mechatronics in a temperature-controlled environment (37° C.). Briefly, an even layer of RBCs suspended in polyvinylpyrrolidone (PVP) is subjected to shear stress gradient (0.3 to 30 Pa) through two concentric cylinders and the resulting changes in RBC shape or deformability are measured by a laser beam diffraction pattern. The captured images of RBC shape in response to increasing shear stress are then analyzed by the LORRCA program to calculate Elongation Index (EI).
Healthy RBCs have higher deformability≥0.5 EI and SCD RBCs have lower deformability or EI values as studied by LORRCA ektacytometry in the field. […] The induced hemolysis model in this disclosure involves use of tert-butyl hydroperoxide (TBHP) to lower EI of RBCs.
The ex vivo hemolysis study disclosed here involves overnight treatment of whole blood with vehicle as a control and specific amino acids followed by rapid oxidation (5 min) with TBHP. Method for oxidation of whole blood with tert-butyl hydroperoxide has been used in prior literature (Diederich L, et al, Front Physiol. 2018 May 11; 9:332). RBC deformability or shape changes are then measured with LORRCA ektacytometry.
Whole blood aliquots stored in the fridge were brought up to room temperature while gently shaking on a rocker at low speed for an hour to ensure gradual and uniform suspension of red blood cells prior to deformability measurements. Vehicle control used in the study was 1× Dulbecco's […]) and amino acids disclosed herein were added (at either final […] or 2.5 mM concentration as indicated) to corresponding vehicle and amino acid treatment conditions. The samples were then incubated overnight at 37° C. Next day, 25 μL of whole blood was taken from each treatment condition and added to 5 mL Elon ISO viscous solution from RR Mechatronics. The sample was inverted 15-20 times to ensure proper mixing of the treated RBCs with the Elon ISO solution followed by loading the sample on LORRCA and capturing RBC deformability or shape measurements over the applied shear gradient. The remaining whole blood treatments were returned to incubator (37° C.) until deformability measurements were completed for all treatments. To the remaining whole blood treatment samples, TBHP solution (5.0-6.0 M in Decane, Sigma) was added at 2.5 mM final concentration from a 100 mM freshly prepared stock and incubated for further 5 min at 37° C. 25 μL of this TBHP-treated sample was immediately removed at the end of the 5 min incubation and added to the Elon ISO solution for RBC deformability measurement after oxidation. Included in the Tables 13-15 are EI measurements at ½ EImax shear stress 1.69 Pa and EImax shear stress 30 Pa from these studies and FIG. 1 captures EI measurements for all shear stress points for the indicated treatment conditions.

[2] = system: VCAM-1; experiment: VCAM-1 cell integrated intensity in HLMVEC treated with TNFa; type: cell-based, human; conditions: 0.5 ng/mL TNFα; amino acids at 20×; 24 hours; in words
Source text: A VEC model was employed to assess the ability of amino acids to influence aspects of vascular dysfunction in SCD. TNFa treatment of healthy donor HLMVEC mimics the SCD disease state and induces expression of adhesion markers ICAM-1 and VCAM-1, and secretion of proinflammatory cytokine IL-6. It is established that levels of ICAM-1, VCAM-1, and IL-6 can contribute to SCD pathology and correlate with the incidence and severity of complications in SCD patients. The VEC model sought to test the ability of amino acids to reduce the TNFa-induced disease phenotype by lowering expression of adhesion markers (ICAM-1 and VCAM-1) and inflammatory cytokines (IL-6) while promoting VEC health and viability.
Primary Human Lung Microvascular Endothelial Cells (HLMVEC; Lonza) were seeded at 6,000 cells per well in Endothelial Cell Growth Basal Medium-2 (Lonza) supplemented with Fetal Bovine Serum (FBS; Lonza), human EGF (Lonza), human VEGF (Lonza), R3-Insulin-like Growth Factor-1 (Lonza), ascorbic acid (Lonza), hydrocortisone (Lonza), human FGF-beta (Lonza), and gentamicin/amphotericin-b (Lonza) in a 96-well plate (Thermo Fisher). The cells were incubated for 45 minutes at room temperature, then incubated overnight at 37° C./5% CO2.
Following overnight incubation, cell were washed once with 150 μL of Dulbecco's phosphate buffered saline (DPBS; Gibco), and then treated with Endothelial Basal Medium MCB-131 (amino acid, glucose, sodium pyruvate, and phenol red free; US Biologicals) containing a defined custom amino acid concentration based on physiological concentrations in blood of patients with SCD (thus recapitulating observed metabolic imbalances such as the depletion of certain essential amino acids including arginine and aspartate and enrichment of certain non-essential amino acids including glutamate and asparagine), dialyzed FBS (Hyclone), human EGF (Lonza), human VEGF (Lonza), R3-Insulin-like Growth Factor-1 (Lonza), ascorbic acid (Lonza), hydrocortisone (Lonza), human FGF-beta (Lonza), and gentamicin/amphotericin-b (Lonza), glucose, 10 mM HEPES, sodium pyruvate, and sodium bicarbonate supplemented with one of the following: • a. PBS (vehicle control), • b. 0.5 ng/mL Tumor Necrosis Factor alpha (TNFα) and PBS, or; • c. 0.5 ng/mL TNFα and amino acid treatments at 20× mean physiological concentrations in plasma based on values published in the Human Metabolome Database (HMDB) in PBS.
After 24 hours of treatment, cells were washed once with 150 μL of DPBS (Gibco), then fixed with 4% paraformaldehyde. […]
Antibody binding was detected by fluorescence microscopy using a high content imager (Molecular Devices). Images were analyzed using MetaXpress 6 software to determine the integrated intensity per cell for each wavelength corresponding to ICAM-1 or VCAM-1.

[3] = Plasma pharmacokinetics after oral gavage in male Sprague-Dawley rats; type: in vivo; parameters: AUC(0-t): concentration or dose not given beside the values; conditions: rat
Procedure: A pharmacokinetic (PK) analysis was performed on plasma concentrations of various combinations of amino acid compounds administered by oral gavage to male Sprague-Dawley rats. Four animals were dosed with RCitNacQCarLHKVS, a test article comprising ten amino acid components: arginine, citrulline, N-acetylcysteine, glutamine, carnitine, leucine, histidine, lysine, valine, and serine (Table 19). Animals were fasted for 2 hours prior to dose administration. Plasma samples were taken immediately pre-dose and 0.5, 1, 2, 3, 4, and 5 hours post-dose.
Bioanalysis of collected plasma samples for amino acid content was performed at Axcella Health using an LC-MS method (Section 2.1). Bioanalytical data were analyzed using noncompartmental analysis with Phoenix® WinNonLin® (v8.1).
An LC/MS method utilizing HILIC chromatography and high-resolution mass spectrometry was used to quantify amino acids in rat plasma. The samples were prepared by protein precipitation and spiked with stable-labeled amino acid internal standard for each analyte. […] QCs, spiked into rat plasma, were utilized to assess the accuracy of the method.
PK parameters of test article components were determined from individual rat plasma concentration-time data by employing a noncompartmental approach using Phoenix WinNonlin® (Version 8.1) software. Nominal times were used to calculate the toxicokinetic parameters. […] This program analyzed data using the standard methods described by Gibaldi and Perrier (see M. Gibaldi and D. Perrier, Pharmacokinetics, 2nd edition, New York: Marcel-Dekker, Inc.; 1982.).

[4] = system: IL-6; experiment: LPS-induced IL-6 secretion in primary human PBMC-derived macrophages (ELISA); type: cell-based; conditions: Donor 2; in words
Procedure: (§1) Unpurified buffy coats (Research Blood Components) were carefully poured into 50 mL centrifuge tubes and diluted with room temperature Dulbecco's Phosphate Buffered Saline (dPBS) with Calcium and Magnesium (Gibco). Diluted buffy coats were further divided into four total 50 mL centrifuge tubes at 20 mL per tube. Lymphocyte Separation Medium (Corning) was carefully pipetted to the bottom of each centrifuge tube. Mixtures were centrifuged at 850× g for 32 minutes at 20° C. with 0 deceleration and acceleration.
(§2) The PBMC layer was separated from other components after centrifugation and added to new 50 mL centrifuge tube containing 25 mL dPBS. Total volume was brought up to 50 mL with dPBS and centrifuged at 600× g for 10 minutes at 20° C. with acceleration of 9, deceleration of 5. Supernatant was carefully removed from cell pellets. The cell pellets were resuspended using 10 mL dPBS. Total volume was then brought up to 50 mL using dPBS and centrifuged at 450× g for 5 min at 20° C. with acceleration of 9, deceleration of 9. The supernatant removal and cell pellet resuspension was repeated again.
(§3) The supernatant was then carefully removed from cell pellets. Cell pellets were resuspended in 10 mL dPBS without calcium or magnesium and filtered through a 70 uM cell strainer. The total PBMC number was determined using a Cellometer K2 automated cell counter. A total of 5E6 cells were saved for flow cytometric analysis. Remaining cells were centrifuged at 490× g for 5 minutes at 20° C. with acceleration of 9, deceleration of 9.
(§4) CD14+ cells were selected using EasySep™ Human CD14 Positive Selection Kit II ([…] Technologies). Cells were resuspended in cold EasySep™ Buffer ([…] Technologies) at 1×10^8 cells/mL. A total of 100 uL/mL EasySep™ Human CD14 Positive Selection Cocktail II was added to the cell suspension, mixed, and incubated at room temperature for 10 minutes. A total of 100 uL/mL RapidSpheres were added to the mixture and incubated at room temperature for 3 minutes after mixing, then RoboSep buffer was added to bring up the total volume to 10 mL. The mixture in a 15 mL tube was placed in magnet and incubated at room temperature for 3 minutes. Supernatant was discarded and 10 mL fresh EasySep™ buffer was added to 15 mL tube. The addition of RoboSep buffer, mixing, and discarding of supernatant was repeated two more times.
(§5) Negative and positive fractions were centrifuged at 490× g for 5 minutes at 20° C. with acceleration of 9, deceleration of 9, and resuspended in DMEM (Gibco) and 10% Heat Inactivated Fetal Bovine Serum (Atlanta Bio) and Penicillin/Streptomycin. Cells were counted and centrifuged again at […] for 5 minutes at 20° C. with acceleration of 9, deceleration of 9. After centrifugation, cell were resuspended in DMEM (Gibco) and 10% Heat Inactivated Fetal Bovine Serum (Atlanta Bio) and Penicillin/Streptomycin containing 500 U/mL […] and plated at 1-2×10^6 cells/mL on 10 cm tissue culture plates. Cells were kept in 37° C., 5% CO2 in between feedings/harvest.
(§6) Cells were fed every 3-4 days by removing media and unattached cells, centrifuging at 490× g for 5 minutes at 20 C with acceleration of 9, deceleration of 9, and resuspending in fresh DMEM (Gibco) and 10% Heat Inactivated Fetal Bovine Serum (Atlanta Bio) and Penicillin/Streptomycin containing GM-CSF. Resuspended cells were seeded back onto 10 cm tissue culture plates and incubated at 37° C., 5% CO2. Differentiated macrophages were used for subsequent experiments.
(§7) Primary human PMBC derived macrophages were seeded on day 0 at 3.0E4 cells per well in 96-well microplates (ThermoFisher) in Dulbecco's Modified Eagle Medium (DMEM) (Gibco) supplemented with penicillin-streptomycin (Hyclone) and 10% heat inactivated fetal bovine serum (HI-FBS) (Atlanta Bio) and incubated overnight at 37° C., 5% CO2. On day 1, cells were washed once with 150 uL per well DPBS (Gibco) and treated with 75 uL of: • a. […]

[5] = system: TNFa; experiment: LPS-induced TNFa secretion in primary human PBMC-derived macrophages (ELISA); type: cell-based; conditions: Donor 2; in words
Procedure: as §1, §2, §3, §4, §5, §6, §7

[6] = plasma, Mean, oral gavage of RCitNacQCarLHKVS, male Sprague-Dawley rats, read-out: AUC0-5 h
[7] = plasma, Mean, oral gavage of RCitNacQCarLHKVS, male Sprague-Dawley rats, read-out: Cmax
[8] = plasma, Mean, oral gavage of RCitNacQCarLHKVS, male Sprague-Dawley rats, read-out: Tmax
[9] = male, Sprague-Dawley, in vivo, po

SMILES	AUC(0-t) [3, 6] [µM·h]	Cmax [3, 7] [µM]	Tmax [3, 8] [h]	also measured
NC(=O)NCCC[C@H](N)C(=O)O [Cit, citrulline]	–	–	–	EI over vehicle control, ½ EImax and EImax [1]: higher than the vehicle; VCAM-1 expression in HLMVEC [2]: moderate effect
NC(=O)NCCC[C@H](N)C(=O)O [Citrulline]	2090	583	2.5	–
N[C@@H](Cc1c[nH]cn1)C(=O)O [Histidine]	–	–	–	AUC(0-t) [3, 9]: 157 µM·h; Cmax [3, 9]: 41.9 µM; Tmax [3, 9]: 1.25 h
C[N+](C)(C)CC(O)CC(=O)[O-] (stereo not shown) [Carnitine]	237	83.8	5	–
NCCCC[C@H](N)C(=O)O [Lysine]	1350	337	1	–
C[N+](C)(C)CC(O)CC(=O)[O-] (stereo not shown) [Car, carnitine]	–	–	–	EI over vehicle control, ½ EImax and EImax [1]: higher than the vehicle; VCAM-1 expression in HLMVEC [2]: moderate effect
N[C@@H](CO)C(=O)O [Serine]	1030	285	2.25	–
CC(C)C[C@H](N)C(=O)O [Leucine]	586	170	0.5	effect on LPS-induced IL-6 secretion [4]: increased; effect on LPS-induced TNFa secretion [5]: increased
CC[C@H](C)[C@H](N)C(=O)O [Isoleucine]	–	–	–	effect on LPS-induced TNFa secretion [5]: increased
CC(C)[C@H](N)C(=O)O [Valine]	463	126	1	–
